Measured values as given in ChEMBL document CHEMBL1201862, “PubChem BioAssay data set” (2004).
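96-well plates; 48 h exposure; 5 concentrations. Endpoints by linear interpolation between flanking doses. Not reached: highest tested concentration assigned. The concentration for 50% growth inhibition is given as GI50.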 The source made the active and inactive calls. Rule as the data show it: active = GI50 up to about 1.1 µM and inactive = higher.

Key:
Assay in all cases: DTP human tumour cell line panel, 48 h
A498 = tested on: A498
CAKI-1 = tested on: CAKI-1
HCC 2998 = tested on: HCC 2998
HCT-15 = tested on: HCT-15
IGROV-1 = tested on: IGROV-1
KM12 = tested on: KM12
M14 = tested on: M14
MDA-N = tested on: MDA-N
MOLT-4 = tested on: MOLT-4
Malme-3M = tested on: Malme-3M
OVCAR-4 = tested on: OVCAR-4
SF-268 = tested on: SF-268
SF-539 = tested on: SF-539
SK-MEL-5 = tested on: SK-MEL-5
SK-OV-3 = tested on: SK-OV-3
SNB-19 = tested on: SNB-19
SW-620 = tested on: SW-620
TK-10 = tested on: TK-10
U-251 = tested on: U-251

| Compound | GI50 (A498) | GI50 (CAKI-1) | GI50 (HCC 2998) | GI50 (HCT-15) | GI50 (IGROV-1) | GI50 (KM12) | GI50 (M14) | GI50 (MDA-N) | GI50 (MOLT-4) | GI50 (Malme-3M) | GI50 (OVCAR-4) | GI50 (SF-268) | GI50 (SF-539) | GI50 (SK-MEL-5) | GI50 (SK-OV-3) | GI50 (SNB-19) | GI50 (SW-620) | GI50 (TK-10) | GI50 (U-251) |
| --- | --- | --- | --- | --- | --- | --- | --- | --- | --- | --- | --- | --- | --- | --- | --- | --- | --- | --- | --- |
| Cn1c(=O)c2c(nc(N)n2C2OC(CO)C(O)C2O)n(C)c1=O (stereo unspecified) | > 100 µM (inactive) | > 100 µM (inactive) | > 100 µM (inactive) | > 100 µM | > 100 µM (inactive) | > 100 µM (inactive) | > 100 µM (inactive) | > 100 µM (inactive) | > 100 µM (inactive) | > 100 µM (inactive) | > 100 µM (inactive) | > 100 µM (inactive) | > 100 µM (inactive) | > 100 µM (inactive) | > 100 µM (inactive) | > 100 µM (inactive) | > 100 µM (inactive) | > 100 µM (inactive) | > 100 µM (inactive) |
| O=C(/C=C/c1ccc(-c2ccccc2)cc1)NCc1ccc(C(=O)NCc2ccccc2)cc1 | > 100 µM (inactive) | > 100 µM (inactive) | > 100 µM (inactive) | > 100 µM | > 100 µM (inactive) | > 100 µM (inactive) | > 100 µM (inactive) | > 100 µM (inactive) | – | > 100 µM (inactive) | > 100 µM (inactive) | > 100 µM (inactive) | > 100 µM (inactive) | > 100 µM (inactive) | > 100 µM (inactive) | > 100 µM (inactive) | > 100 µM (inactive) | > 100 µM (inactive) | > 100 µM (inactive) |
| O=Cc1c(-c2ccccc2)nc2ccccc2c1O | 81.8 µM (inactive) | 43.4 µM (inactive) | 58.5 µM (inactive) | 65.2 µM | 53.8 µM (inactive) | 30.3 µM (inactive) | 68.2 µM (inactive) | 15.6 µM (inactive) | 55.7 µM (inactive) | 54 µM (inactive) | > 100 µM (inactive) | 59.3 µM (inactive) | 45.6 µM (inactive) | 17.9 µM (inactive) | > 100 µM (inactive) | > 100 µM (inactive) | 50.6 µM (inactive) | > 100 µM (inactive) | 74.3 µM (inactive) |
| Clc1cccc(Cl)c1C1SCc2nc3ncccc3n21 (stereo unspecified) | > 100 µM (inactive) | 8.07 µM (inactive) | > 100 µM (inactive) | > 100 µM | > 100 µM (inactive) | 52.8 µM (inactive) | > 100 µM (inactive) | 62.8 µM (inactive) | 61.8 µM (inactive) | 55.8 µM (inactive) | 52.2 µM (inactive) | > 100 µM (inactive) | > 100 µM (inactive) | 65.8 µM (inactive) | > 100 µM (inactive) | > 100 µM (inactive) | > 100 µM (inactive) | > 100 µM (inactive) | > 100 µM (inactive) |
| CN[C@H]1CC[C@]23C[C@]24CC[C@]2(C)[C@@H]([C@H](C)N(C)C)CC[C@@]2(C)[C@@H]4CC[C@H]3C1(C)C | 20.6 µM (inactive) | 21.9 µM (inactive) | 13.4 µM (inactive) | 10.7 µM | 16.8 µM (inactive) | 15 µM (inactive) | 12.2 µM (inactive) | 13.9 µM (inactive) | 16.5 µM (inactive) | 17.1 µM (inactive) | 17.7 µM (inactive) | 14.4 µM (inactive) | 11.2 µM (inactive) | 15.1 µM (inactive) | 19.1 µM (inactive) | 16.7 µM (inactive) | 15.4 µM (inactive) | 18.3 µM (inactive) | 13.7 µM (inactive) |
| CC(C)=CC[C@]12CCN(C)[C@H]1N(S(=O)(=O)c1ccccc1)c1ccccc12 | > 100 µM (inactive) | > 25.6 µM (inactive) | > 40.1 µM (inactive) | > 47.2 µM | > 56.9 µM (inactive) | 26.1 µM (inactive) | – | 48.2 µM (inactive) | > 43.4 µM (inactive) | > 49.2 µM (inactive) | 43.6 µM (inactive) | > 44.6 µM (inactive) | 58.9 µM (inactive) | 11.9 µM (inactive) | 6.25 µM (inactive) | > 20.3 µM (inactive) | > 60.3 µM (inactive) | > 55.5 µM (inactive) | 32.7 µM (inactive) |
| CCCc1cc(=O)oc2c(C=O)c(O)cc(O)c12 | 19.5 µM (inactive) | 27 µM (inactive) | 16.7 µM (inactive) | 26.4 µM | 30.9 µM (inactive) | 22.7 µM (inactive) | 22.8 µM (inactive) | 22.3 µM (inactive) | 23.3 µM (inactive) | 18.5 µM (inactive) | 25.8 µM (inactive) | 26.6 µM (inactive) | 26.7 µM (inactive) | 17.4 µM (inactive) | 27.8 µM (inactive) | 25.8 µM (inactive) | 21.8 µM (inactive) | > 100 µM (inactive) | 22.5 µM (inactive) |
| O=C1CSC(c2ccccc2)N1c1ccc(-n2c(-c3ccccc3)nc3ccccc3c2=O)cc1 (stereo unspecified) | > 100 µM (inactive) | > 100 µM (inactive) | > 100 µM (inactive) | 46.9 µM | 34.8 µM (inactive) | 41.1 µM (inactive) | > 100 µM (inactive) | > 79.1 µM (inactive) | 28.1 µM (inactive) | > 92.5 µM (inactive) | 42 µM (inactive) | 96.8 µM (inactive) | 65.2 µM (inactive) | 47.4 µM (inactive) | > 100 µM (inactive) | > 69.2 µM (inactive) | > 100 µM (inactive) | > 100 µM (inactive) | 59.8 µM (inactive) |
| O=[N+]([O-])c1ccc(C2ON=C(c3ccccc3)N2C23CC4CC(CC(C4)C2)C3)cc1 (stereo unspecified) | > 10 µM (inactive) | > 10 µM (inactive) | > 10 µM (inactive) | > 10 µM | > 10 µM (inactive) | > 10 µM (inactive) | > 10 µM (inactive) | > 10 µM (inactive) | > 10 µM (inactive) | > 10 µM (inactive) | > 10 µM (inactive) | > 10 µM (inactive) | 2.89 µM (inactive) | > 10 µM (inactive) | > 10 µM (inactive) | > 10 µM (inactive) | > 10 µM (inactive) | > 10 µM (inactive) | 6.35 µM (inactive) |
| C#C[C@]1(O)CC[C@H]2[C@@H]3CCc4cc(OC(=O)c5cccc6cc7ccccc7nc56)ccc4[C@H]3CC[C@@]21C | > 100 µM (inactive) | 23 µM (inactive) | 29.4 µM (inactive) | 26.1 µM | 14.6 µM (inactive) | 20 µM (inactive) | 31 µM (inactive) | 25.5 µM (inactive) | 6.98 µM (inactive) | 6.44 µM (inactive) | 38.4 µM (inactive) | 67.5 µM (inactive) | 31.6 µM (inactive) | 13.6 µM (inactive) | 62.1 µM (inactive) | 50.7 µM (inactive) | 29.7 µM (inactive) | – | 24 µM (inactive) |
| Cc1nc2n(c1/C=C1/C(=O)Nc3ccccc31)CCS2 | 31.2 µM (inactive) | 42.1 µM (inactive) | 20.8 µM (inactive) | 34.2 µM | 91 µM (inactive) | 31.1 µM (inactive) | 67.5 µM (inactive) | 17.6 µM (inactive) | 30.9 µM (inactive) | 56 µM (inactive) | 52.5 µM (inactive) | 81.8 µM (inactive) | 41.5 µM (inactive) | 31.5 µM (inactive) | 68.2 µM (inactive) | > 100 µM (inactive) | 47.4 µM (inactive) | 31.6 µM (inactive) | 42.4 µM (inactive) |
| CCOC(=O)CCN1C(=O)c2ccc(NC(=O)C(=O)O)cc2S1(=O)=O | > 100 µM (inactive) | > 100 µM (inactive) | > 100 µM (inactive) | > 100 µM | > 100 µM (inactive) | > 100 µM (inactive) | > 100 µM (inactive) | > 100 µM (inactive) | > 100 µM (inactive) | > 100 µM (inactive) | > 100 µM (inactive) | – | > 100 µM (inactive) | > 100 µM (inactive) | > 100 µM (inactive) | > 100 µM (inactive) | > 100 µM (inactive) | > 100 µM (inactive) | > 100 µM (inactive) |
| C=Cc1nc2nnc(CCCCCCCCc3nnc4nc(C=C)[nH]n34)n2[nH]1 | 40.7 µM (inactive) | > 100 µM (inactive) | 75.3 µM (inactive) | > 100 µM | > 100 µM (inactive) | > 100 µM (inactive) | > 100 µM (inactive) | > 100 µM (inactive) | 47.4 µM (inactive) | 58.7 µM (inactive) | 83.9 µM (inactive) | > 100 µM (inactive) | > 100 µM (inactive) | 41.6 µM (inactive) | > 100 µM (inactive) | > 100 µM (inactive) | > 100 µM (inactive) | > 100 µM (inactive) | 30.7 µM (inactive) |
| COC(=O)c1cc(=O)n(-c2ccc3nn(C)nc3c2)cc1C(=O)OC | > 100 µM (inactive) | > 100 µM (inactive) | > 100 µM (inactive) | > 100 µM | > 100 µM (inactive) | > 100 µM (inactive) | > 100 µM (inactive) | > 100 µM (inactive) | > 100 µM (inactive) | > 100 µM (inactive) | > 100 µM (inactive) | > 100 µM (inactive) | > 100 µM (inactive) | > 100 µM (inactive) | > 100 µM (inactive) | > 100 µM (inactive) | > 100 µM (inactive) | > 100 µM (inactive) | > 100 µM (inactive) |
| COC(=O)c1ccc2[nH]c3c(c2c1)CC(=O)Nc1ccccc1-3 | > 100 µM (inactive) | 56 µM (inactive) | > 100 µM (inactive) | > 100 µM | 44.2 µM (inactive) | > 100 µM (inactive) | 35.8 µM (inactive) | > 100 µM (inactive) | 1.31 µM (inactive) | > 100 µM (inactive) | 0.673 µM (active) | 9.18 µM (inactive) | 2.94 µM (inactive) | > 100 µM (inactive) | 41.7 µM (inactive) | > 100 µM (inactive) | > 100 µM (inactive) | 83.9 µM (inactive) | 6.68 µM (inactive) |
